Source: PubChem BioAssay (NCI)
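Cultured in 96-well plates, cells were exposed to test compound for 48 hours across five concentrations. At the TGI there is no net growth.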

Experiments:
Test in all cases: inhibition of tumour cell growth, NCI panel, 48 h
[1] = tested on: MDA-N
[2] = tested on: MCF7 breast
[3] = tested on: SK-OV-3 ovarian
[4] = tested on: T-47D breast
[5] = tested on: HCT-116 colon
[6] = tested on: SF-268 CNS
[7] = tested on: OVCAR-5 ovarian
[8] = tested on: SNB-75 CNS
[9] = tested on: PC-3 prostate
[10] = tested on: EKVX NSCLC

| SMILES | TGI [1] [µM] | TGI [2] [µM] | TGI [3] [µM] | TGI [4] [µM] | TGI [5] [µM] | TGI [6] [µM] | TGI [7] [µM] | TGI [8] [µM] | TGI [9] [µM] | TGI [10] [µM] |
| --- | --- | --- | --- | --- | --- | --- | --- | --- | --- | --- |
| COc1cc2c(cc1OC)C1(COc3cc(O)c(O)c(O)c3C1=O)C2 (stereo not drawn) | > 50 | 41.1 | > 50 | > 50 | > 50 | > 50 | > 50 | > 50 | > 50 | – |
| CCOC(=O)/C(C#N)=C/c1ccnc2ccccc12 | > 100 | – | > 100 | > 100 | > 100 | > 100 | > 100 | > 100 | > 100 | > 100 |
| CC(=O)N=C1N(/C=C2\C(=O)Oc3ccccc3C2=O)C(=O)/C(=C/c2ccc(Cl)cc2Cl)N1C | – | > 100 | > 100 | > 100 | > 100 | > 100 | > 100 | > 100 | > 100 | > 100 |
| C/C=C/C1OC(O)(C(C)C(O)[C@H](C)C2OC(=O)/C(OC)=C/C(C)=C/[C@@H](C)[C@@H](O)[C@@H](C)C(O)C(C)C/C(C)=C/C=C/C2OC)C[C@@H](OC2CC(O)C(OC(N)=O)C(C)O2)C1C (stereo partly drawn) | 1.11 | 7.65 | > 43.4 | – | 1.42 | 10.3 | 3.14 | 2.12 | 0.625 | 8.37 |
| COc1cc2c(=O)cnoc2cc1O | > 100 | > 100 | > 100 | > 100 | – | > 100 | > 100 | > 100 | > 100 | > 100 |
| Cc1csc(/N=C\c2c(O)c3ccccc3oc2=O)n1 | > 100 | > 100 | 45.6 | – | > 100 | > 100 | > 100 | 65.1 | > 100 | 99.3 |
| O=S(=O)(/N=C(\NO)Nc1ccc(Cl)cc1)c1cccc2nsnc12 | 79 | – | > 100 | > 100 | 85.4 | > 100 | 75.5 | > 100 | > 100 | 66 |
| FC1C2=C(SC1(F)F)C1CCC2C1 (stereo not drawn) | – | > 100 | > 100 | > 100 | > 100 | – | > 100 | > 100 | > 100 | > 100 |
| O=C1CC(c2cccc(Br)c2)n2cccc21 (stereo not drawn) | – | > 100 | > 100 | > 100 | > 100 | > 100 | > 100 | > 100 | > 100 | > 100 |
| CC1=C(C(=O)c2ccccc2)C23C(=O)N(c4ccccc4)C(=O)C2=C(O)C=CC3(O)N1 (stereo not drawn) | – | > 100 | – | > 100 | > 100 | > 100 | > 100 | 77.5 | > 100 | > 100 |
| CN(/N=C/c1ccnc2ccccc12)c1ccc(Cl)cc1[N+](=O)[O-] | > 100 | > 100 | > 100 | – | > 100 | > 100 | > 100 | > 100 | > 100 | > 100 |
| COc1ccc(C2SCC(=O)N2NC(=O)c2ccc(NC(C)=O)cc2)cc1 (stereo not drawn) | > 100 | > 100 | > 100 | > 100 | > 100 | > 100 | > 100 | > 100 | – | > 100 |
| CC1=Nc2sc3c(c2C2=NCCN12)CCCC3 | 44.2 | 48.1 | – | 88 | 44.7 | > 100 | 92 | > 100 | 65.9 | 94.1 |
| C=C1C(=O)O[C@H]2[C@@H](O)[C@H](C)CCC[C@]3(C)O[C@H]3CC[C@@]3(C)O[C@@H]3C[C@@H]12 | – | 7.87 | 25 | 19.9 | 6.52 | 14.9 | 12.5 | 15.2 | 14.5 | 11.3 |
| CC(C)C1=CC23CCC4C(C)(C(=O)O)CCCC4(C)C2CC1C1C(=O)N(c2ccccc2)C(=O)C13 (stereo not drawn) | – | – | > 100 | – | > 100 | > 100 | > 100 | > 100 | – | – |
| CC(C)=CCC/C(C)=C/CC/C(C)=C/CC/C(=C/CC/C(C)=C\CC/C(C)=C/CC/C(C)=C/CC/C(C)=C/Cc1cc(O)ccc1O)CO | 64.3 | 15.2 | 40.7 | – | > 31.9 | 9.17 | > 91.5 | 12.7 | 15.5 | 33.5 |
| CC(C)C(/C=C/c1ccc(Cl)c(Cl)c1)=N\NC(=O)N/N=C(/C=C/c1ccc(Cl)c(Cl)c1)C(C)C | > 100 | > 100 | > 100 | – | – | > 100 | > 100 | > 100 | > 100 | > 100 |
| Nc1nn2c(nc(N)c3c(N)[nH]nc32)c1N=Nc1ccc(Br)cc1 | 9.88 | > 100 | > 100 | – | > 100 | 36.1 | > 96.2 | 59.9 | > 100 | > 100 |
| COc1cc2cc(C(=O)N3CC(CCl)c4c3cc(N)c3ccccc43)[nH]c2c(OC)c1OC (stereo not drawn) | – | – | 0.248 | > 100 | 1.08 | < 0.01 | – | < 0.01 | < 0.0114 | < 0.01 |
| Clc1ccc(C2Nc3ccccc3C3=NCCN32)cc1 (stereo not drawn) | 39.8 | 57.3 | > 100 | 46.9 | 71.5 | 84.5 | > 100 | – | > 100 | 93.7 |
| CCCCON1C[C@H](OC(C)=O)C(OC(C)=O)[C@H](OC(C)=O)C1 (stereo partly drawn) | > 100 | > 100 | > 100 | > 100 | > 100 | > 100 | – | > 100 | > 100 | > 100 |
| O=C(NCc1cccc2ccccc12)N/N=C\c1ccc(Cl)cc1 | 75.7 | > 100 | – | > 100 | > 100 | > 100 | > 100 | > 100 | > 100 | > 100 |
| Cc1ccc2nc(-c3ccc(N4C(=O)C(Cl)C4c4ccc(Cl)cc4)cc3)sc2c1 (stereo not drawn) | 40.9 | 32.7 | 28 | > 100 | 59.4 | 68 | 45.3 | – | 36.8 | 19.9 |
